In patent US20230065740A1, “CYCLIN-DEPENDENT KINASE INHIBITORS” (SPV THERAPEUTICS INC., priority 2018, published 2023):

Assays:
[1] = molecular target: CDK4-CYCLIND1 (Homo sapiens, UniProt P11802); assay: Microfluidic LabChip kinase inhibition assay, CDK4-CyclinD1; details: CDK4 IC50 (μM), Table 2; 200 μM ATP, 1 nM enzyme
Procedure: Inhibition assays were performed using microfluidic LabChip 300 Drug Discovery System from Caliper Life Sciences. […] The assay has a total volume of 10 μL consisting of 5 μL of enzyme and buffer and 5 μL of substrate and buffer. The test compounds were diluted in 100% dimethylsulfoxide (DMSO) using 3-fold dilution steps. […] Compounds were tested in a single well for each dilution and the final concentration of DMSO was maintained at 1%.
The assay buffer contained 100 mM HEPES, pH 7.5, 0.01% Triton X-100, 0.1% bovine serum albumin (BSA), 5 mM MgCl2; 1 mM dithiothreitol (DTT), 10 μM sodium orthovanadate, and 10 μM β-glycerophosphate.
The assay was conducted by adding 5 μL of enzyme, adenosine triphosphate (ATP) and buffer to an assay plate. A 100 nL aliquot of the diluted compounds were added to the plate. The assay was initiated by the addition of 5 μL of phosphoenolpyruvate substrate (PEP) in buffer. […] The reaction was terminated by the addition of EDTA. The plates were analyzed using a Caliper LabChip 3000.

[2] = molecular target: T1, CDK6-CYCLIND3 (Homo sapiens, UniProt Q00534); assay: Microfluidic LabChip kinase inhibition assay, CDK6-CyclinD3; format: biochemical; details: Table 2; 300 μM ATP, 2 nM enzyme; read-out: CDK6 IC50
T1 construct: purchased Carna
T1 sequence (Q00534 whole entry): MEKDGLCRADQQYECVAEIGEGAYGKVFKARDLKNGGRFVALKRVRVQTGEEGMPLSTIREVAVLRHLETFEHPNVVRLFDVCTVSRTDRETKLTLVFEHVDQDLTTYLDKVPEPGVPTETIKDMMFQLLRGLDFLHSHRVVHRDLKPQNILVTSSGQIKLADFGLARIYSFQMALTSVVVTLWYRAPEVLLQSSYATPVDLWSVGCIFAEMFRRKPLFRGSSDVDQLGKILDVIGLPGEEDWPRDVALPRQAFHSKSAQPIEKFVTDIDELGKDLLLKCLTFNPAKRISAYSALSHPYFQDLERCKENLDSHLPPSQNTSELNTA
T1 sequence (P30281 whole entry partner): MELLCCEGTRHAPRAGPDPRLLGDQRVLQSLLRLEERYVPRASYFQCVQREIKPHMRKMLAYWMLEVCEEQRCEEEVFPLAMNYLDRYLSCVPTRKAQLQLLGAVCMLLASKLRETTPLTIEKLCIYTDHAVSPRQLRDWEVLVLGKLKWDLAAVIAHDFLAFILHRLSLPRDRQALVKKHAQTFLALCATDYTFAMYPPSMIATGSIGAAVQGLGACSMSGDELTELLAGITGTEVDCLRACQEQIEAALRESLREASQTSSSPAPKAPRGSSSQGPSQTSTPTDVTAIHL

CDK4-CYCLIND1, sequence (P11802 whole entry): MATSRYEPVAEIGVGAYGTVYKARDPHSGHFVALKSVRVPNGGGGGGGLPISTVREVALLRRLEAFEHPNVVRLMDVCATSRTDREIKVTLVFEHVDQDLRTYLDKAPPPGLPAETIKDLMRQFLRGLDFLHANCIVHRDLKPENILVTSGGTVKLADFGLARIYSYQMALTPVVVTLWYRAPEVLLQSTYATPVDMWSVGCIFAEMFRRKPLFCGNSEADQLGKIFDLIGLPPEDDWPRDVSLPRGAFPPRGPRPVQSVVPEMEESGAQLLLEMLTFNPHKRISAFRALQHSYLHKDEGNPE
CDK4-CYCLIND1, sequence (P24385 whole entry partner): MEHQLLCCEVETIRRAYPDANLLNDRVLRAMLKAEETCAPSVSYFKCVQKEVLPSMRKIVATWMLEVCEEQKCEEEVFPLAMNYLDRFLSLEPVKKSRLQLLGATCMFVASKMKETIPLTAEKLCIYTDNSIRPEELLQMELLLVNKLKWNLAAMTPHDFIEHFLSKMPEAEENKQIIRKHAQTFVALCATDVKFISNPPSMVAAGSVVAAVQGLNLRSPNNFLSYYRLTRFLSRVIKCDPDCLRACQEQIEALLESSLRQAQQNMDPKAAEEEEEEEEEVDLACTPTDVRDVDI

Row | Structure (SMILES) | IC50 [1] [µM] | IC50 [2] [µM]
1 | CC(C)N1CCN(c2ccc(Nc3ncc4c(n3)N(C3CCCC3)C3(CCN(Cc5ccccc5)C3=O)C4)nc2)CC1 (stereo not shown) [Compound C23, 1-benzyl-7′-cyclopentyl-2′-((5-(4-isopropylpiperazin-1-yl)pyridin-2-yl)amino)-5′,7′-dihydrospiro[pyrrolidine-3,6′-pyrrolo[2,3-d]pyrimidin]-2-one] | 17.7 | > 30
2 | CN1CCN(c2ccc(Nc3ncc4c(n3)N(C3CCCC3)C3(CCN(Cc5ccccc5)C3=O)C4)cc2)CC1 (stereo not shown) [Compound C24, 1-benzyl-7′-cyclopentyl-2′-((4-(4-methylpiperazin-1-yl)phenyl)amino)-5′,7′-dihydrospiro[pyrrolidine-3,6′-pyrrolo[2,3-d]pyrimidin]-2-one] | 12.3 | > 30
3 | CN1CCCC2(Cc3cnc(Nc4ccc(N5CCNCC5)cn4)nc3N2C2CCCC2)C1=O (stereo not shown) [Compound C25, 7′-cyclopentyl-1-methyl-2′-((5-(piperazin-1-yl)pyridin-2-yl)amino)-5′,7′-dihydrospiro[piperidine-3,6′-pyrrolo[2,3-d]pyrimidin]-2-one] | > 30 | > 30
4 | CN1CCN(c2ccc(Nc3ncc4c(n3)N(C3CCCC3)C3(CCCN(C)C3=O)C4)nc2)CC1 (stereo not shown) [Compound C26, 7′-cyclopentyl-1-methyl-2′-((5-(4-methylpiperazin-1-yl)pyridin-2-yl)amino)-5′,7′-dihydrospiro[piperidine-3,6′-pyrrolo[2,3-d]pyrimidin]-2-one] | > 30 | > 30
5 | O=C1N(Cc2ccccc2)CCCC12Cc1cnc(Nc3ccc(N4CCNCC4)cn3)nc1N2C1CCCC1 (stereo not shown) [Compound C27, 1-benzyl-7′-cyclopentyl-2′-((5-(piperazin-1-yl)pyridin-2-yl)amino)-5′,7′-dihydrospiro[piperidine-3,6′-pyrrolo[2,3-d]pyrimidin]-2-one] | > 30 | > 30
6 | CN1CCN(c2ccc(Nc3ncc4c(n3)N(C3CCCC3)C3(CCCN(Cc5ccccc5)C3=O)C4)nc2)CC1 (stereo not shown) [Compound C28, 1-benzyl-7′-cyclopentyl-2′-((5-(4-methylpiperazin-1-yl)pyridin-2-yl)amino)-5′,7′-dihydrospiro[piperidine-3,6′-pyrrolo[2,3-d]pyrimidin]-2-one] | > 30 | > 30
7 | O=C1NCCCC12Cc1cnc(Nc3ccc(N4CCNCC4)cn3)nc1N2C1CCCC1 (stereo not shown) [Compound C35, 7′-cyclopentyl-2′-((5-(piperazin-1-yl)pyridin-2-yl)amino)-5′,7′-dihydrospiro[piperidine-3,6′-pyrrolo[2,3-d]pyrimidin]-2-one] | 19.6 | > 30
8 | CN1CCN(c2ccc(Nc3ncc4c(n3)N(C3CCCC3)C3(CCCNC3=O)C4)nc2)CC1 (stereo not shown) [Compound C36, 7′-cyclopentyl-2′-((5-(4-methylpiperazin-1-yl)pyridin-2-yl)amino)-5′,7′-dihydrospiro[piperidine-3,6′-pyrrolo[2,3-d]pyrimidin]-2-one] | 29.3 | > 30
9 | CC(C)N1CCN(c2ccc(Nc3ncc4c(n3)N(C3CCCC3)C3(CCCNC3=O)C4)nc2)CC1 (stereo not shown) [Compound C37, 7′-cyclopentyl-2′-((5-(4-isopropylpiperazin-1-yl)pyridin-2-yl)amino)-5′,7′-dihydrospiro[piperidine-3,6′-pyrrolo[2,3-d]pyrimidin]-2-one] | > 30 | > 30
10 | O=C1NCCCC12Cc1cnc(Nc3cc(C(F)(F)F)c(N4CCNCC4)cn3)nc1N2C1CCCC1 (stereo not shown) [Compound C44, 7′-cyclopentyl-2′-((5-(piperazin-1-yl)-4-(trifluoromethyl)pyridin-2-yl)amino)-5′,7′-dihydrospiro[piperidine-3,6′-pyrrolo[2,3-d]pyrimidin]-2-one] | > 30 | > 30
11 | CN1CCN(c2ccc(Nc3ncc4c(n3)N(C3CCCC3)C3(CCNC3=O)C4)cc2F)CC1 (stereo not shown) [Compound C48, 7′-cyclopentyl-2′-((3-fluoro-4-(4-methylpiperazin-1-yl)phenyl)amino)-5′,7′-dihydrospiro[pyrrolidine-3,6′-pyrrolo[2,3-d]pyrimidin]-2-one] | 0.0161 | 0.129

Further lines, results first:

Row | IC50 [1] [µM] | IC50 [2] [µM] | Structure (SMILES)
12 | 7.78 | > 30 | COc1ccc(CN2CCC3(Cc4cnc(Nc5ccc(N6CCNCC6)cn5)nc4N3C3CCCC3)C2=O)cc1 (stereo not shown) [Compound C29, 7′-cyclopentyl-1-(4-methoxybenzyl)-2′-((5-(piperazin-1-yl)pyridin-2-yl)amino)-5′,7′-dihydrospiro[pyrrolidine-3,6′-pyrrolo[2,3-d]pyrimidin]-2-one]
13 | 8.21 | > 30 | COc1ccc(CN2CCC3(Cc4cnc(Nc5ccc(N6CCN(C)CC6)cn5)nc4N3C3CCCC3)C2=O)cc1 (stereo not shown) [Compound C30, 7′-cyclopentyl-1-(4-methoxybenzyl)-2′-((5-(4-methylpiperazin-1-yl)pyridin-2-yl)amino)-5′,7′-dihydrospiro[pyrrolidine-3,6′-pyrrolo[2,3-d]pyrimidin]-2-one]
14 | 7.28 | > 30 | COc1ccc(CN2CCC3(Cc4cnc(Nc5ccc(N6CCN(C(C)C)CC6)cn5)nc4N3C3CCCC3)C2=O)cc1 (stereo not shown) [Compound C31, 7′-cyclopentyl-2′-((5-(4-isopropylpiperazin-1-yl)pyridin-2-yl)amino)-1-(4-methoxybenzyl)-5′,7′-dihydrospiro[pyrrolidine-3,6′-pyrrolo[2,3-d]pyrimidin]-2-one]
15 | 10.5 | > 30 | COc1ccc(CN2CCC3(Cc4cnc(Nc5ccc(OCCN(C)C)cn5)nc4N3C3CCCC3)C2=O)cc1 (stereo not shown) [Compound C32, 7′-cyclopentyl-2′-((5-(2-(dimethylamino)ethoxy)pyridin-2-yl)amino)-1-(4-methoxybenzyl)-5′,7′-dihydrospiro[pyrrolidine-3,6′-pyrrolo[2,3-d]pyrimidin]-2-one]
16 | 0.694 | 2.08 | O=C1NCCC12Cc1cnc(Nc3ccc(N4CCNCC4)cn3)nc1N2C1CCCC1 (stereo not shown) [Compound C33, 7′-cyclopentyl-2′-((5-(piperazin-1-yl)pyridin-2-yl)amino)-5′,7′-dihydrospiro[pyrrolidine-3,6′-pyrrolo[2,3-d]pyrimidin]-2-one]
17 | 1.16 | 3.7 | CN1CCN(c2ccc(Nc3ncc4c(n3)N(C3CCCC3)C3(CCNC3=O)C4)nc2)CC1 (stereo not shown) [Compound C34, 7′-cyclopentyl-2′-((5-(4-methylpiperazin-1-yl)pyridin-2-yl)amino)-5′,7′-dihydrospiro[pyrrolidine-3,6′-pyrrolo[2,3-d]pyrimidin]-2-one]
18 | 0.631 | 2.99 | CC(C)N1CCN(c2ccc(Nc3ncc4c(n3)N(C3CCCC3)C3(CCNC3=O)C4)nc2)CC1 (stereo not shown) [Compound C38, 7′-cyclopentyl-2′-((5-(4-isopropylpiperazin-1-yl)pyridin-2-yl)amino)-5′,7′-dihydrospiro[pyrrolidine-3,6′-pyrrolo[2,3-d]pyrimidin]-2-one]
19 | 0.53 | 2.55 | CN1CCN(c2ccc(Nc3ncc4c(n3)N(C3CCCC3)C3(CCN(Cc5ccccc5)C3=O)C4)cc2F)CC1 (stereo not shown) [Compound C39, 1-benzyl-7′-cyclopentyl-2′-((3-fluoro-4-(4-methylpiperazin-1-yl)phenyl)amino)-5′,7′-dihydrospiro[pyrrolidine-3,6′-pyrrolo[2,3-d]pyrimidin]-2-one]
20 | 2.96 | 10.7 | CN1CCN(c2ccc(Nc3ncc4c(n3)N(C3CCCC3)C3(CCCN(Cc5ccccc5)C3=O)C4)cc2F)CC1 (stereo not shown) [Compound C40, 1-benzyl-7′-cyclopentyl-2′-((3-fluoro-4-(4-methylpiperazin-1-yl)phenyl)amino)-5′,7′-dihydrospiro[piperidine-3,6′-pyrrolo[2,3-d]pyrimidin]-2-one]
21 | 5.98 | 12.8 | CN1CCN(c2ccc(Nc3ncc4c(n3)N(C3CCCC3)C3(CCN(Cc5ccccc5)C3=O)C4)c(F)c2)CC1 (stereo not shown) [Compound C41, 1-benzyl-7′-cyclopentyl-2′-((2-fluoro-4-(4-methylpiperazin-1-yl)phenyl)amino)-5′,7′-dihydrospiro[pyrrolidine-3,6′-pyrrolo[2,3-d]pyrimidin]-2-one]
22 | 4.46 | 12.1 | CN1CCN(c2ccc(Nc3ncc4c(n3)N(C3CCCC3)C3(CCCN(Cc5ccccc5)C3=O)C4)c(F)c2)CC1 (stereo not shown) [Compound C42, 1-benzyl-7′-cyclopentyl-2′-((2-fluoro-4-(4-methylpiperazin-1-yl)phenyl)amino)-5′,7′-dihydrospiro[piperidine-3,6′-pyrrolo[2,3-d]pyrimidin]-2-one]
23 | 0.0633 | 0.423 | O=C1NCCC12Cc1cnc(Nc3ccc(N4CCNCC4)cc3)nc1N2C1CCCC1 (stereo not shown) [Compound C43, 7′-cyclopentyl-2′-((4-(piperazin-1-yl)phenyl)amino)-5′,7′-dihydrospiro[pyrrolidine-3,6′-pyrrolo[2,3-d]pyrimidin]-2-one]
24 | 0.105 | 0.574 | CN1CCN(c2ccc(Nc3ncc4c(n3)N(C3CCCC3)C3(CCNC3=O)C4)cc2)CC1 (stereo not shown) [Compound C45, 7′-cyclopentyl-2′-((4-(4-methylpiperazin-1-yl)phenyl)amino)-5′,7′-dihydrospiro[pyrrolidine-3,6′-pyrrolo[2,3-d]pyrimidin]-2-one]
25 | 0.0701 | 0.394 | CC(C)N1CCN(c2ccc(Nc3ncc4c(n3)N(C3CCCC3)C3(CCNC3=O)C4)cc2)CC1 (stereo not shown) [Compound C46, 7′-cyclopentyl-2′-((4-(4-isopropylpiperazin-1-yl)phenyl)amino)-5′,7′-dihydrospiro[pyrrolidine-3,6′-pyrrolo[2,3-d]pyrimidin]-2-one]
26 | 0.0315 | 0.179 | O=C1NCCC12Cc1cnc(Nc3ccc(N4CCNCC4)c(F)c3)nc1N2C1CCCC1 (stereo not shown) [Compound C47, 7′-cyclopentyl-2′-((3-fluoro-4-(piperazin-1-yl)phenyl)amino)-5′,7′-dihydrospiro[pyrrolidine-3,6′-pyrrolo[2,3-d]pyrimidin]-2-one]
